Laboratory results published in US8604085B2, “Bupropion hydrobromide polymorphs” (Valeant International Bermuda, priority 2008, dated 2013).

What was measured:
Type in all cases: physicochemical
[1] = Slurries in 2-propanol at room temperature, 50° C. and 80° C.; conditions: form by XRD
Method: 0.050 g of Form I were suspended in 4 ml of solvent and stirred at room temperature. for 1 week (7 days). The sample was filtered and analyzed by X-ray diffraction.
0.040 g of Form I+0.040 g of Form II were suspended in 4 ml of solvent and stirred at room temperature for 1 week (7 days). The sample was filtered and analyzed by X-ray diffraction experiments.
0.050 g of Form II were suspended in 4 ml of solvent and stirred at room temperature for 1 week (7 days). The sample was filtered and analyzed by X-ray diffraction experiments.
0.050 g of Form I were suspended in 4 ml of solvent and stirred at 50° C. for 1 Week (7 days). The sample was filtered and analyzed by X-ray diffraction experiments.
0.040 g of Form I+0.040 g of Form II were suspended in 4 ml of solvent and stirred at 50° C. for 1 week (7 days). The sample was filtered and analyzed by X-ray diffraction experiments.
Form I+Form II were suspended in solvent and stirred at 80° C. for 14 hours. The sample was filtered and analyzed by X-ray diffraction experiments. […] Slurry in 2-propanol at 80° C. is an atypical experiment because if we consider the boiling point of the solvent, it could be defined as a combination between a slurry and precipitation experiment. Form I was obtained during the precipitation from supersaturated solution by 2-propanol. However the high temperature and the reflux produce the energetic conditions needed by the stable crystal form (Form II) to convert to the metastable crystal form (Form I).

[2] = Stability tests on bupropion hydrobromide polymorphs in humidity chamber (XRD pattern); conditions: 40° C., 85% R.H., open sample-holder
Method: Stability tests were performed on bupropion hydrobromide Form I, Form II, Form III, Form IV, Form V and Form VI. The powders were stored in a controlled atmosphere (85% R.H.) at 40° C. Form I and Form II were stored for 7 and 30 days respectively, while the other forms were stored only for 30 days. The sample was positioned on the sample-holder which was introduced, without any cover, into the humidity chamber at 40° C. The layer of the sample on the sample-holder was about 0.5 cm.
In addition, stability tests were performed on bupropion hydrobromide Form VII.

[3] = Precipitation by anti-solvent (ethyl acetate) addition at room temperature
Description: The samples were filtered and analyzed by X-ray diffraction. Form I converts into Form II using chloroform, and also with benzyl alcohol. The other experiments yield only Form I. See Table 54 for Form I precipitation results by anti-solvent addition.

[4] = TGA and DSC characterization
Method: The PXRD diffraction patterns were obtained on X-ray powder diffraction PANalytical X′pert Pro equipped with X′Celerator, in a measurement range between 3 and 40 2 theta. All the DSC experiments were performed with a DSC 7 Perkin Elmer instrument in a temperature range between 25° C. and 250° C. with a heating rate of 10° C./min.
All the TGA experiments were conducted with a TGA 7 Perkin Elmer instrument in a temperature range between 39° C. and 310° C. with a heating rate of 10° C./min.
PXRD, DSC, TGA and IR analyses were obtained for Bupropion Hydrobromide Polymorph Form I, Form II, Form III, Form IV, Form V, Form VI, and Form VII. PXRD analyses were obtained for the amorphous form. With respect to the PXRD analyses, the Peak List is shown for Form I, Form II, Form III, Form IV, Form V, Form VI, Form VII and the amorphous form in Table 56, Table 57, Table 58, Table 59, Table 60, Table 61, Table 62 and Table 63 respectively.

[5] = Comparison of the stability of several bupropion salts in open and closed vials at about 40 degrees C. and about 75% relative humidity (HPLC); conditions: about 40 degrees C., about 75% relative humidity, various periods of time
Method: A comparison of the stability of several bupropion salts, including the hydrobromide, hydrochloride, maleate, tosylate, fumarate, succinate, tartrate and citrate salts, was performed by placing these salts in both open and closed vials in a stability chamber kept at about 40 degrees C. and about 75% relative humidity for various periods of time (e.g. 10 days, 13 days, 14 days, 20 days, 24 days, or 32 days). The stability of the salts was evaluated based on the formation of the main degradation products as determined by HPLC analysis and the % potency (or assay) of the API, after specific time periods in the stability chamber. The effect of the addition of solvents, such as water, ethanol and isopropyl alcohol, was also studied.

[6] = Release of bupropion base from the salt
Method: It was previously observed that when 150 mg of bupropion HCl was tested for its release of bupropion, the base value that was released was 130 mg. However, when 150 mg of bupropion HBr was tested, the base value released was only 112 mg. Thus, the amount of bupropion HBr had to be increased in order to increase the base value from 112 mg to 130 mg, which was the target.

[7] = Forced degradation studies of the API's in the presence of standard excipients; conditions: with standard excipients; about 24 and about 48 hours at about 55° C., about 55° C. and 100% relative humidity, about 105° C.
Method: Forced degradation studies were also performed on bupropion hydrobromide and bupropion hydrochloride API's in the presence of standard excipients used in pharmaceutical formulations.

[8] = Forced degradation studies of bupropion hydrobromide and bupropion hydrochloride in closed bottles; conditions: about 40 degrees C., about 75% relative humidity
Method: Further stability tests were performed by directly comparing bupropion hydrobromide and bupropion hydrochloride salts in forced degradation studies. […] At specified times, the material in the bottles was analyzed for the presence of degradation products and % potency (% assay).

Br.CC(NC(C)(C)C)C(=O)c1cccc(Cl)c1 (single isomer, unassigned) [Form I]
Slurry result in 2-propanol ([1]; 50° C., 1 week (7 days)): converted to Form II
Slurry result in 2-propanol ([1]; mixture Form I+Form II, 80° C., 14 hours): remained as Form I
Slurry result in 2-propanol ([1]; room temperature, 1 week (7 days)): converted to Form II
XRD pattern / crystal form after storage ([2]; 7 days): did not show modification
XRD pattern / crystal form after storage ([2]; 30 days): did not show modification
Precipitation Result ([3]; solvent 1-Butanol): Form I
Precipitation Result ([3]; solvent 1-Methyl-2-Pyrrolidone): Form I
Precipitation Result ([3]; solvent 1-Propanol): Form I
Precipitation Result ([3]; solvent 2-Methoxy Ethanol): Form I
Precipitation Result ([3]; solvent 2-Methyl-1-Propanol): Form I
Precipitation Result ([3]; solvent 2-Propanol): Form I
Precipitation Result ([3]; solvent Benzyl Alcohol): Form II
Precipitation Result ([3]; solvent Chloroform): Form II
Precipitation Result ([3]; solvent Dichloromethane): Form I
Precipitation Result ([3]; solvent Dimethylformamide): Form I
Precipitation Result ([3]; solvent Ethanol): Form I
Precipitation Result ([3]; solvent Methanol): Form I
TGA (mass change) ([4]; successive mass-loss steps listed per polymorph): −100.04%
DSC (onset ° C.) ([4]; successive thermal events listed per polymorph): 236.81 °C

Br.CC(NC(C)(C)C)C(=O)c1cccc(Cl)c1 (stereo not shown) [Bupropion hydrobromide, 3′-chloro-2-t-butylamino-1-propiophenone hydrobromide]
amount of degradation products compared with other bupropion salts [5]: least amount of degradation products
base value that was released ([6]; 150 mg of the salt tested): 112 mg
base value that was released ([6]; 174 mg of the salt tested): 130 mg
amount of degradation (bupropion degradation impurities) versus bupropion hydrochloride [7]: lowest amount of degradation
% potency compared to the bupropion hydrochloride salt [8]: generally higher
amount of impurities compared to the bupropion hydrochloride salt [8]: generally lower
